Assay results as given in patent US10000507B2, “Furo- and thieno-pyridine carboxamide compounds useful as pim kinase inhibitors” (Incyte Corporation, priority 2013, dated 2018).
pIC50: −log10 of the molar value.

Columns and labels:
Format in all cases: biochemical
Pim-1 = Pim-1 (Homo sapiens (Human), UniProt P11309); assay: Pim-1 kinase assay; settings: 1 mM ATP, biotin-labeled BAD peptide substrate; read-out: Pim1 IC50
Outline: (§1)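 Biotin-BAD peptide ([…]) phosphorylated with 1 mM ATP by 2.5 pM Pim-1 or 1.25 pM Pim-3, 1 h at 25 °C in Tris pH 7.5, MgCl2, DTT buffer. EDTA stop with anti-phospho-BAD (Ser112) antibody and AlphaScreen streptavidin donor/Protein-A acceptor beads; signal read after 1 h dark incubation.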

Pim-2 = Pim-2 (Homo sapiens (Human), UniProt Q9P1W9); assay: Pim-2 kinase assay; settings: 1 mM ATP, fluorescein-labeled CREBtide peptide substrate; read-out: Pim2 IC50
Chain of Pim-2 (Q9P1W9 whole entry): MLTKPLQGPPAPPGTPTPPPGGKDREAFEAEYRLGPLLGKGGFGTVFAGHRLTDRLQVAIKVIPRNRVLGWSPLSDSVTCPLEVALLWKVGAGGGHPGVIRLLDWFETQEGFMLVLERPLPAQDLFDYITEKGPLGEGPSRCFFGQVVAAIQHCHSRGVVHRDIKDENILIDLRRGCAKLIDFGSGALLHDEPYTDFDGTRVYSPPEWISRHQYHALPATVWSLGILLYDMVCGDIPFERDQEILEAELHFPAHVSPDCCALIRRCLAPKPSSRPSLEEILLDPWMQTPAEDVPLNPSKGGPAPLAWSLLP
Outline: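 Phosphorylated CREBtide was detected by terbium anti-pSer133 antibody TR-FRET after EDTA quench and 30 min at room temperature. Reactions ran 2 h at 25 °C with 1 mM ATP, 0.05 μM fluorescein-labelled substrate and 1 nM enzyme in pH 7.5 Tris buffer.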

Pim-3 = Pim-3 (Homo sapiens (Human), UniProt Q86V86); assay: Pim-3 kinase assay; settings: 1 mM ATP, biotin-labeled BAD peptide substrate; read-out: Pim3 IC50
Outline: as §1

Chain of Pim-1 (P11309 whole entry): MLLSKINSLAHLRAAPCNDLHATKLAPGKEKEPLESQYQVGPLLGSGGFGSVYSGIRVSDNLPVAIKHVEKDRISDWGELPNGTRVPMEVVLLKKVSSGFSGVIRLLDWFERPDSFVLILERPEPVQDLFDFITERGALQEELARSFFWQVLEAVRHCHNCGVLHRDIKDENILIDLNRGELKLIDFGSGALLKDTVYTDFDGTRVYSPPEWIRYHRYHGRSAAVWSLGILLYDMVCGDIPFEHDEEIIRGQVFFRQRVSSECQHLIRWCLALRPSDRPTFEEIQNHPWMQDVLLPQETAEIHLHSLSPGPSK

CNC(=O)c1ccc(-c2cnc3c(C(=O)Nc4cnccc4N4C[C@@H](N)C[C@@H](C(F)(F)F)C4)c(N)oc3c2)cn1 [Example 126]
pIC50 (Pim-1): ≥ 8.00
pIC50 (Pim-2): 7.00 to 8.00
pIC50 (Pim-3): ≥ 8.00

CNC(=O)c1ccc(-c2cnc3c(C(=O)Nc4cnccc4N4C[C@H](C)C[C@H](N)C4)c(N)oc3c2)cn1 [Example 127, 2-Amino-N-(4-((3S,5R)-3-amino-5-methylpiperidin-1-yl)pyridin-3-yl)-6-(6-(methylcarbamoyl)pyridin-3-yl)furo[3,2-b]pyridine-3-carboxamide]
pIC50 (Pim-1): ≥ 8.00
pIC50 (Pim-2): 7.00 to 8.00
pIC50 (Pim-3): ≥ 8.00

Nc1oc2cc(C3CC3)cnc2c1C(=O)Nc1cnccc1N1C[C@@H](N)[C@H](O)[C@@H](C2CC2)C1 [Example 128, 2-Amino-N-(4-((3R,4R,5S)-3-amino-5-cyclopropyl-4-hydroxypiperidin-1-yl)pyridin-3-yl)-6-cyclopropylfuro[3,2-b]pyridine-3-carboxamide]
pIC50 (Pim-1): ≥ 8.00
pIC50 (Pim-2): 7.00 to 8.00
pIC50 (Pim-3): ≥ 8.00

Nc1oc2cc(C(F)(F)F)cnc2c1C(=O)Nc1cnccc1N1C[C@@H](N)[C@H](O)[C@@H](C2CC2)C1 [Example 129, 2-Amino-N-(4-((3R,4R,5S)-3-amino-5-cyclopropyl-4-hydroxypiperidin-1-yl)pyridin-3-yl)-6-(trifluoromethyl)furo[3,2-b]pyridine-3-carboxamide]
pIC50 (Pim-1): ≥ 8.00
pIC50 (Pim-2): 7.00 to 8.00
pIC50 (Pim-3): ≥ 8.00

CC(C)c1cnc2c(C(=O)Nc3cnccc3[C@@H]3C[C@H](C)C[C@H](N)C3)c(N)oc2c1 [Example 130, 2-Amino-N-{4-[(1R,3S,5S)-3-amino-5-methylcyclohexyl]pyridin-3-yl}-6-isopropylfuro[3,2-b]pyridine-3-carboxamide]
pIC50 (Pim-1): ≥ 8.00
pIC50 (Pim-2): ≥ 8.00
pIC50 (Pim-3): ≥ 8.00

COCCCc1cnc2c(C(=O)Nc3cnccc3N3C[C@@H](N)C[C@@H](C(F)(F)F)C3)c(N)oc2c1 [Example 131, 2-Amino-N-{4-[(3S,5R)-3-amino-5-(trifluoromethyl)piperidin-1-yl]pyridin-3-yl}-6-(3-methoxypropyl)furo[3,2-b]pyridine-3-carboxamide]
pIC50 (Pim-1): ≥ 8.00
pIC50 (Pim-2): ≥ 8.00
pIC50 (Pim-3): ≥ 8.00

Nc1oc2cc(CCCN3CCOCC3)cnc2c1C(=O)Nc1cnccc1N1C[C@@H](N)C[C@@H](C(F)(F)F)C1 [Example 132, 2-Amino-N-{4-[(3S,5R)-3-amino-5-(trifluoromethyl)piperidin-1-yl]pyridin-3-yl}-6-(3-morpholin-4-ylpropyl)furo[3,2-b]pyridine-3-carboxamide]
pIC50 (Pim-1): ≥ 8.00
pIC50 (Pim-2): ≥ 8.00
pIC50 (Pim-3): ≥ 8.00

C[C@@H]1C[C@H](N)C[C@H](c2ccncc2NC(=O)c2c(N)oc3cc(C4CC4)cnc23)C1 [Example 133, 2-Amino-N-{4-[(1R,3S,5S)-3-amino-5-methylcyclohexyl]pyridin-3-yl}-6-cyclopropylfuro[3,2-b]pyridine-3-carboxamide]
pIC50 (Pim-1): ≥ 8.00
pIC50 (Pim-2): ≥ 8.00
pIC50 (Pim-3): ≥ 8.00

COCCCc1cnc2c(C(=O)Nc3cnccc3N3C[C@H](C)C[C@H](N)C3)c(N)oc2c1 [Example 134, 2-Amino-N-{4-[(3S,5R)-3-amino-5-methylpiperidin-1-yl]pyridin-3-yl}-6-(3-methoxypropyl)furo[3,2-b]pyridine-3-carboxamide]
pIC50 (Pim-1): ≥ 8.00
pIC50 (Pim-2): ≥ 8.00
pIC50 (Pim-3): ≥ 8.00

CN(C)CCCc1cnc2c(C(=O)Nc3cnccc3N3C[C@@H](N)C[C@@H](C(F)(F)F)C3)c(N)oc2c1 [Example 135, 2-Amino-N-{4-[(3S,5R)-3-amino-5-(trifluoromethyl)piperidin-1-yl]pyridin-3-yl}-6-[3-(dimethylamino)propyl]furo[3,2-b]pyridine-3-carboxamide]
pIC50 (Pim-1): ≥ 8.00
pIC50 (Pim-2): 7.00 to 8.00
pIC50 (Pim-3): ≥ 8.00

Nc1oc2cccnc2c1C(=O)Nc1cnccc1[C@H]1C[C@@H](N)C[C@@H](C(F)(F)F)C1 [Example 136, 2-Amino-N-{4-[(1R,3R,5S)-3-amino-5-(trifluoromethyl)cyclohexyl]pyridin-3-yl}furo[3,2-b]pyridine-3-carboxamide]
pIC50 (Pim-1): ≥ 8.00
pIC50 (Pim-2): 7.00 to 8.00
pIC50 (Pim-3): ≥ 8.00

C[C@H]1CN(c2ccncc2NC(=O)c2c(N)oc3cc(CCCF)cnc23)C[C@@H](N)[C@@H]1O [Example 137, 2-Amino-N-(4-((3R,4R,5S)-3-amino-4-hydroxy-5-methylpiperidin-1-yl)pyridin-3-yl)-6-(3-fluoropropyl)furo[3,2-b]pyridine-3-carboxamide]
pIC50 (Pim-1): ≥ 8.00
pIC50 (Pim-2): ≥ 8.00
pIC50 (Pim-3): ≥ 8.00

Nc1oc2cc(CCN3CC[C@@H](F)C3)cnc2c1C(=O)Nc1cnccc1N1C[C@@H](N)C[C@@H](C(F)(F)F)C1 [Example 138, 2-Amino-N-{4-[(3S,5R)-3-amino-5-(trifluoromethyl)piperidin-1-yl]pyridin-3-yl}-6-{2-[(3R)-3-fluoropyrrolidin-1-yl]ethyl}furo[3,2-b]pyridine-3-carboxamide]
pIC50 (Pim-1): ≥ 8.00
pIC50 (Pim-2): ≥ 8.00
pIC50 (Pim-3): ≥ 8.00

CC(C)c1cnc2c(C(=O)Nc3cnccc3N3C[C@@H](N)[C@H](O)[C@@H](C)C3)c(N)sc2c1 [Example 139, 2-Amino-N-(4-((3R,4R,5S)-3-amino-4-hydroxy-5-methylpiperidin-1-yl)pyridin-3-yl)-6-isopropylthieno[3,2-b]pyridine-3-carboxamide]
pIC50 (Pim-1): ≥ 8.00
pIC50 (Pim-2): ≥ 8.00
pIC50 (Pim-3): ≥ 8.00

CCCc1cnc2c(C(=O)Nc3cnccc3N3C[C@@H](N)[C@H](O)[C@@H](C)C3)c(N)sc2c1 [Example 140, 2-Amino-N-(4-((3R,4R,5S)-3-amino-4-hydroxy-5-methylpiperidin-1-yl)pyridin-3-yl)-6-propylthieno[3,2-b]pyridine-3-carboxamide]
pIC50 (Pim-1): ≥ 8.00
pIC50 (Pim-2): ≥ 8.00
pIC50 (Pim-3): ≥ 8.00

CC(=O)Nc1cnc2c(C(=O)Nc3cnccc3N3C[C@@H](N)[C@H](O)[C@@H](C)C3)c(N)sc2c1 [Example 141, 6-(Acetylamino)-2-amino-N-{4-[(3R,4R,5S)-3-amino-4-hydroxy-5-methylpiperidin-1-yl]pyridin-3-yl}thieno[3,2-b]pyridine-3-carboxamide]
pIC50 (Pim-1): ≥ 8.00
pIC50 (Pim-2): 7.00 to 8.00
pIC50 (Pim-3): ≥ 8.00

C[C@H]1CN(c2ccncc2NC(=O)c2c(N)sc3cc(NC(=O)C4CC4)cnc23)C[C@@H](N)[C@@H]1O [Example 142, 2-Amino-N-(4-((3R,4R,5S)-3-amino-4-hydroxy-5-methylpiperidin-1-yl)pyridin-3-yl)-6-(cyclopropanecarboxamido)thieno[3,2-b]pyridine-3-carboxamide]
pIC50 (Pim-1): ≥ 8.00
pIC50 (Pim-2): 7.00 to 8.00
pIC50 (Pim-3): ≥ 8.00

CC(C)C(=O)Nc1cnc2c(C(=O)Nc3cnccc3N3C[C@@H](N)[C@H](O)[C@@H](C)C3)c(N)sc2c1 [Example 143, 2-Amino-N-(4-((3R,4R,5S)-3-amino-4-hydroxy-5-methylpiperidin-1-yl)pyridin-3-yl)-6-isobutyramidothieno[3,2-b]pyridine-3-carboxamide]
pIC50 (Pim-1): ≥ 8.00
pIC50 (Pim-2): 7.00 to 8.00
pIC50 (Pim-3): ≥ 8.00

Nc1sc2cc(N3CCOCC3)cnc2c1C(=O)Nc1cnccc1N1C[C@@H](N)C[C@@H](C(F)(F)F)C1 [Example 144, 2-Amino-N-(4-((3S,5R)-3-amino-5-(trifluoromethyl)piperidin-1-yl)pyridin-3-yl)-6-morpholinothieno[3,2-b]pyridine-3-carboxamide]
pIC50 (Pim-1): ≥ 8.00
pIC50 (Pim-2): 7.00 to 8.00
pIC50 (Pim-3): ≥ 8.00
